Reference: EP0032048A1, “Pyrroloylpyrrole derivatives, processes for their preparation and their use” (BEECHAM GROUP PLC, priority 1980, dated 1981)

Columns and labels:
Assay type in all cases: in vivo
[1] = tested on: phenylquinone induced mouse writhing; experiment: phenylquinone induced mouse writhing test; conditions: po; for inhibition at 16 mg/kg: 16 mg/kg per os
Excerpt: In a conventional phenylquinone induced mouse writhing test, compound 1, 3 and 4 were active at the following dose per os.

[2] = tested on: carageenin induced oedema; experiment: carrageenin induced oedema test in the rat; conditions: for inhibitions (carrageenin oedema) versus controls: dose not given
Excerpt: In a conventional carageenin induced oedema test in the rat, the results were as follows: […]

[3] = tested on: cotton pellet induced granuloma; experiment: cotton pellet induced granuloma test
Excerpt: In a convention cotton pellet induced granuloma test, the results were as follows: I

## Cn1cccc1C(=O)c1ccc(CC(=O)O)n1C [Compound 1, 2-Carboxymethyl-1-methyl-5-(1'-methyl-2'-pyrroloyl)pyrrrole]
[1]
  inhibition at 16 mg/kg: 90%
[2]; dose 20 mg/kg, * 0.05>p>0.02
  inhibition at 20 mg/kg: 19%
[2]; dose 20 mg/kg, control 145.3 + 10.3
  Mean Oedema: 117.7 + 6.6
[3]; dose 10 mg/kg, * 0.05>p>0.02
  inhibition at 10 mg/kg: 22%
[3]; dose 10 mg/kg, control 48.1
  Granuloma Wt.: 37.6 mg

## Cc1cc(CC(=O)O)n(C)c1C(=O)c1cccn1C [Compound 3, 2-Carboxymethyl-1,4-dimethyl-5-(1'-methyl-2'-pyrroloyl) pyrrole]
[1]
  inhibition at 16 mg/kg: 100%
[1]; separate test
  ED50: 2.8 mg/kg
[2]; dose 12.5 mg/kg, ** 0.01>p>0.001
  inhibition at 12.5 mg/kg: 33%
[2]; dose 12.5 mg/kg, control 106.0 + 6.01
  Mean Oedema: 70.62 + 6.31
[3]; dose 5 mg/kg, ** 0.01>p>0.001
  inhibition at 5 mg/kg: 26%
[3]; dose 5 mg/kg, control 35.2
  Granuloma Wt.: 26.1 mg

## Cc1cc(CCC(=O)O)n(C)c1C(=O)c1cccn1C [Compound 4, 2-(2'-Carboxyethyl)-1,4-dimethyl-5-(1"-methyl-2" pyrroloyl) pyrrole]
[1]
  inhibition at 16 mg/kg: 60%

## CC(=O)CCc1cc(C)c(C(=O)c2cccn2C)n1C [Compound 5, 4-(1',4'-Dimethyl-5'-(1"-methyl-2"-pyrroloyl)-2'-pyrryl) butan-2-one]
[2]
  inhibitions (carrageenin oedema) versus controls: significantly different from controls

## Cc1cc(CCC(C)O)n(C)c1C(=O)c1cccn1C (stereo not drawn) [Compound 6, 4-(1',4-Dimethyl-5'-(1"-methyl-2"-pyrroloyl)-2'-pyrryl) butan-2-ol]
[2]
  inhibitions (carrageenin oedema) versus controls: significantly different from controls

## CC(=O)OC(C)CCc1cc(C)c(C(=O)c2cccn2C)n1C (stereo not drawn) [Compound 7, 2-Acetoxy-4-(1',4'-Dimethvl-5'-(1"-methyl-2"-pvrroloyl)-2'-pyrryl)butane]
[2]
  inhibitions (carrageenin oedema) versus controls: significantly different from controls
